Test results as given in PubChem BioAssay AID330 (DTP/NCI, 2004).
Several values for one entry are separate records, joined by “and”; a condition that tells them apart may be missing. Equal values may be shown once. Inconclusive results and toxic doses are left out. How the source made its calls: active means survival T/C of 150% or more; inactive means T/C below 125% in these data.

Test system: P388 leukemia ip, CD2F1 mice, survival T/C
Test: NCI In Vivo Anticancer Drug Screen. Data for tumor model P388 Leukemia (intraperitoneal) in CD2F1 (CDF1) mice
Conditions: endpoint: median survival time, higher = longer survival
In short: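 Mice carrying the transplanted tumor received test compound or vehicle. Survival was recorded in each group, and the value is the treated-group measurement divided by that of the vehicle-treated control group.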

[1] = dose: 50.0 mg/kg/injection, schedule: Q01DX009 (ip), vehicle: saline with Tween-80
[2] = dose: 100.0 mg/kg/injection, schedule: Q01DX009 (ip), vehicle: saline with Tween-80
[3] = dose: 200.0 mg/kg/injection, schedule: Q01DX009 (ip), vehicle: saline with Tween-80
[4] = dose: 12.5 mg/kg/injection, schedule: Q01DX009 (ip), vehicle: saline
[5] = dose: 25.0 mg/kg/injection, schedule: Q01DX009 (ip), vehicle: saline
[6] = dose: 50.0 mg/kg/injection, schedule: Q01DX005 (ip), vehicle: Klucel (hydroxypropylcellulose) (HPC)
[7] = dose: 100.0 mg/kg/injection, schedule: Q01DX005 (ip), vehicle: Klucel (hydroxypropylcellulose) (HPC)
[8] = dose: 200.0 mg/kg/injection, schedule: Q01DX005 (ip), vehicle: Klucel (hydroxypropylcellulose) (HPC)
[9] = dose: 25.0 mg/kg/injection, schedule: Q04DX002 (ip), vehicle: saline with Tween-80
[10] = dose: 50.0 mg/kg/injection, schedule: Q04DX002 (ip), vehicle: saline with Tween-80

Measured: T/C

CN(C)CCNc1cccc2c1C(=O)c1cccc(NCCN(C)C)c1C2=O
inactive: dose: 1.88 mg/kg/injection, schedule: Q01DX009 (ip), vehicle: water 99 % of control | dose: 3.75 mg/kg/injection, schedule: Q01DX009 (ip), vehicle: saline 101 % of control | dose: 3.75 mg/kg/injection, schedule: Q01DX009 (ip), vehicle: water 98 % of control | dose: 7.5 mg/kg/injection, schedule: Q01DX009 (ip), vehicle: saline 102 % of control | dose: 7.5 mg/kg/injection, schedule: Q01DX009 (ip), vehicle: water 110 % of control | dose: 15.0 mg/kg/injection, schedule: Q01DX009 (ip), vehicle: saline 98 % of control | dose: 15.0 mg/kg/injection, schedule: Q01DX009 (ip), vehicle: water 108 % of control | dose: 30.0 mg/kg/injection, schedule: Q01DX009 (ip), vehicle: water 106 % of control

CSC(=S)NNC(C)c1nccc2ccccc12 (configuration not stated)
inactive: dose: 50.0 mg/kg/injection, schedule: Q01DX005 (ip), vehicle: saline with Tween-80 109 % of control | dose: 100.0 mg/kg/injection, schedule: Q01DX005 (ip), vehicle: saline with Tween-80 114 % of control | dose: 200.0 mg/kg/injection, schedule: Q01DX005 (ip), vehicle: saline with Tween-80 108 % of control

CN(CCCl)C(=O)c1ccc([N+](=O)[O-])cc1
inactive: [1] 105 % of control | [2] 116 % of control | [3] 101 % of control

c1ccc([C@H]2CN3CCSC3=N2)cc1
inactive: dose: 1.25 mg/kg/injection, schedule: Q01DX009 (ip), vehicle: saline 101 % of control | dose: 2.5 mg/kg/injection, schedule: Q01DX009 (ip), vehicle: saline 97 % of control | dose: 5.0 mg/kg/injection, schedule: Q01DX009 (ip), vehicle: saline 101 % of control | dose: 6.9 mg/kg/injection, schedule: Q01DX005 (ip), vehicle: saline 98 % of control | dose: 10.0 mg/kg/injection, schedule: Q01DX009 (ip), vehicle: saline 99 % of control | dose: 11.5 mg/kg/injection, schedule: Q01DX001 (ip), vehicle: saline 100 % of control and 109 % of control | dose: 11.5 mg/kg/injection, schedule: Q01DX005 (ip), vehicle: saline 103 % of control | dose: 19.2 mg/kg/injection, schedule: Q01DX001 (ip), vehicle: saline 99 % of control and 109 % of control | dose: 19.2 mg/kg/injection, schedule: Q01DX005 (ip), vehicle: saline 105 % of control | dose: 20.0 mg/kg/injection, schedule: Q01DX009 (ip), vehicle: saline 113 % of control | dose: 32.0 mg/kg/injection, schedule: Q01DX001 (ip), vehicle: saline 99 % of control

CCN(CC)CCCOC(=O)c1ccc(N)cc1
inactive: [4] 100 % of control | dose: 12.5 mg/kg/injection, schedule: Q04DX003 (ip), vehicle: saline 91 % of control | [5] 109 % of control | dose: 25.0 mg/kg/injection, schedule: Q04DX003 (ip), vehicle: saline 91 % of control | dose: 50.0 mg/kg/injection, schedule: Q01DX009 (ip), vehicle: saline 104 % of control | dose: 50.0 mg/kg/injection, schedule: Q04DX003 (ip), vehicle: saline 87 % of control

CCCCCC(C[N+](C)(C)C)C(=O)/C=C/c1ccc(Cl)c(Cl)c1 (configuration not stated)
inactive: dose: 3.12 mg/kg/injection, schedule: Q01DX009 (ip), vehicle: saline with Tween-80 105 % of control | dose: 6.25 mg/kg/injection, schedule: Q01DX009 (ip), vehicle: saline with Tween-80 120 % of control | dose: 6.25 mg/kg/injection, schedule: Q01DX009 (ip), vehicle: saline 114 % of control | dose: 12.5 mg/kg/injection, schedule: Q01DX009 (ip), vehicle: saline with Tween-80 101 % of control | [4] 114 % of control and 124 % of control | dose: 25.0 mg/kg/injection, schedule: Q01DX009 (ip), vehicle: saline with Tween-80 111 % of control | [5] 110 % of control

Cc1ccc(C(=Nc2ccccc2Cl)N(O)c2ccccc2)cc1
inactive: [6] 107 % of control | [7] 102 % of control | [8] 95 % of control

COC(=O)CC1(C(=O)OC)C2=C(CCCC2)N2CCCC21 (configuration not stated)
inactive: dose: 21.88 mg/kg/injection, schedule: Q01DX009 (ip), vehicle: Klucel (hydroxypropylcellulose) (HPC) 102 % of control | dose: 43.75 mg/kg/injection, schedule: Q01DX009 (ip), vehicle: Klucel (hydroxypropylcellulose) (HPC) 102 % of control | dose: 87.5 mg/kg/injection, schedule: Q01DX009 (ip), vehicle: Klucel (hydroxypropylcellulose) (HPC) 100 % of control | dose: 175.0 mg/kg/injection, schedule: Q01DX009 (ip), vehicle: Klucel (hydroxypropylcellulose) (HPC) 100 % of control

Cn1c2c(c(=O)c3c4[nH]c5c(c(=O)c4ccc31)CCCC5)CCCC2
inactive: [6] 108 % of control | dose: 50.0 mg/kg/injection, schedule: Q04DX003 (ip), vehicle: saline with Tween-80 103 % of control | [7] 101 % of control | dose: 100.0 mg/kg/injection, schedule: Q04DX003 (ip), vehicle: saline with Tween-80 103 % of control and 96 % of control | [8] 94 % of control | dose: 200.0 mg/kg/injection, schedule: Q04DX003 (ip), vehicle: saline with Tween-80 99 % of control | dose: 400.0 mg/kg/injection, schedule: Q04DX003 (ip), vehicle: saline with Tween-80 100 % of control and 94 % of control

CC1CCCC(C2CC3CCCCC3C(N)[N-]2)[N-]1.O=[N+]([O-])O.O=[N+]([O-])O.[Cu+2] (configuration not stated)
inactive: dose: 6.25 mg/kg/injection, schedule: Q04DX002 (ip), vehicle: suspension in saline 93 % of control | dose: 12.5 mg/kg/injection, schedule: Q04DX002 (ip), vehicle: suspension in saline 110 % of control

CC(=O)Nc1ccc2nc3ccc(NC(C)=O)cc3[n+](-c3ccccc3)c2c1
active: dose: 31.3 mg/kg/injection, schedule: Q01DX010 (ip), vehicle: saline 177 % of control | dose: 62.5 mg/kg/injection, schedule: Q01DX010 (ip), vehicle: saline 204 % of control | dose: 125.0 mg/kg/injection, schedule: Q01DX010 (ip), vehicle: saline 200 % of control

CN=C(N)NN=C(c1ccc(Br)cc1)c1ccc(Br)cc1
inactive: [9] 100 % of control and 106 % of control | [10] 103 % of control and 124 % of control

C1CCC2CC2C2(CC1)CO2 (configuration not stated)
inactive: dose: 100.0 mg/kg/injection, schedule: Q04DX003 (ip), vehicle: Klucel (hydroxypropylcellulose) (HPC) 106 % of control | dose: 200.0 mg/kg/injection, schedule: Q04DX003 (ip), vehicle: Klucel (hydroxypropylcellulose) (HPC) 108 % of control | dose: 400.0 mg/kg/injection, schedule: Q04DX003 (ip), vehicle: Klucel (hydroxypropylcellulose) (HPC) 115 % of control

CC(C)=CCCC(C)(OC1OC(COC2OCC(O)C(O)C2O)C(O)C(O)C1O)C1CCC2(C)C1C(O)CC1C3(C)CCC(OC4OC(CO)C(O)C(O)C4OC4OC(CO)C(O)C(O)C4O)C(C)(C)C3CCC12C (configuration not stated)
inactive: dose: 18.75 mg/kg/injection, schedule: Q01DX009 (ip), vehicle: Klucel (hydroxypropylcellulose) (HPC) 98 % of control | dose: 37.5 mg/kg/injection, schedule: Q01DX009 (ip), vehicle: Klucel (hydroxypropylcellulose) (HPC) 100 % of control | dose: 75.0 mg/kg/injection, schedule: Q01DX009 (ip), vehicle: Klucel (hydroxypropylcellulose) (HPC) 92 % of control | dose: 150.0 mg/kg/injection, schedule: Q01DX009 (ip), vehicle: Klucel (hydroxypropylcellulose) (HPC) 92 % of control

CN1CCN(C)C1=Nc1ccccc1/C=C/C=C1C(=O)N(C)C(=O)N(C)C1=O
inactive: [9] 114 % of control | [10] 106 % of control | dose: 100.0 mg/kg/injection, schedule: Q04DX002 (ip), vehicle: saline with Tween-80 123 % of control

CCSC(=O)OCC(F)([N+](=O)[O-])[N+](=O)[O-]
inactive: dose: 100.0 mg/kg/injection, schedule: Q04DX003 (ip), vehicle: saline 108 % of control | dose: 200.0 mg/kg/injection, schedule: Q04DX003 (ip), vehicle: saline 100 % of control | dose: 400.0 mg/kg/injection, schedule: Q04DX003 (ip), vehicle: saline 104 % of control

CN(C)P1(=O)OCC(C(C)(C)C)CN1C (configuration not stated)
inactive: dose: 50.0 mg/kg/injection, schedule: Q01DX009 (ip), vehicle: Klucel (hydroxypropylcellulose) (HPC) 100 % of control | dose: 100.0 mg/kg/injection, schedule: Q01DX009 (ip), vehicle: Klucel (hydroxypropylcellulose) (HPC) 107 % of control

O=C(Nc1nc2cccnc2s1)C(F)(F)F
inactive: [1] 100 % of control | [2] 97 % of control | [3] 94 % of control
